Data published in patent US20250049798A1, “WEE1 PROTEIN KINASE DEGRADATION AGENT AND USE THEREOF” (HANGZHOU GLUBIO PHARMACEUTICAL CO. LTD., priority 2021, published 2025).
pIC50: −log10 of the molar value. Where two headings read alike, the source gives them in different places.

Assays:
HiBiT tagged Wee1 = HiBiT tagged Wee1 (Homo sapiens, UniProt P30291); experiment: Wee1 protein degradation assay (HiBiT assay); format: cell-based; conditions: engineered HT-1080 cells, 20 hours; for Dmax: maximum percentage of Wee1 degradation, read-out: HiBiT Wee1: Dmax
Chain of HiBiT tagged Wee1 (P30291 whole entry): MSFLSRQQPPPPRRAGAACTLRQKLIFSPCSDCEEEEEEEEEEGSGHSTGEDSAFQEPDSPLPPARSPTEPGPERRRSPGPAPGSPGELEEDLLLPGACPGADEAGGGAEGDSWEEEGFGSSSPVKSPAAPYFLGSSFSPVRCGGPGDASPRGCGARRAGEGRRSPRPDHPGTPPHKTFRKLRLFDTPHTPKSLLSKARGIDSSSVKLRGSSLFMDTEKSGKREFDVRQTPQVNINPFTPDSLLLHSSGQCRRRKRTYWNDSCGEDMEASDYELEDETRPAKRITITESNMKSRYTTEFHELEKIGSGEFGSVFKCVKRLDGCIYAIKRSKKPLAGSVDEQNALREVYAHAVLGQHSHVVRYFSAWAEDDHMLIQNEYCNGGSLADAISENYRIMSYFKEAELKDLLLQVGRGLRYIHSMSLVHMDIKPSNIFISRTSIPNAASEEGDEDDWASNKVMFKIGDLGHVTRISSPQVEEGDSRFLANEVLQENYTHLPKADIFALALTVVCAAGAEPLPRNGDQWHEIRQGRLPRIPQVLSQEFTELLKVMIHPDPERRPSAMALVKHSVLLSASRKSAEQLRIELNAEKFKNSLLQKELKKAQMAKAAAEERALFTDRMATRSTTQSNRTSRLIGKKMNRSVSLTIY

NCI-H1048 cells = experiment: NCI-H1048 cell proliferation assay (CTG assay); format: cell-based; conditions: 120 hours, read-out: CTG cellular assay_H1048: IC50
Procedure: NCI-H1048 Cell Proliferation Assay (CTG Assay) The following is an example of an assay that can be used to determine the anti-proliferative activity of Wee1 PROTACs in a small cell lung cancer cell line, NCI-H1048 (ATCC Cat #CRL-5853). This cell line was cultured in RPMI-1640 medium supplemented with 10% FBS. About 1,200 NCI-H1048 cells in 50 μL of culture medium were seeded into a 384-well plate (Cat #3764, Corning), pre-spotted with compounds using the Echo 650 liquid handler (Beckman). The dose-response-curve (DRC) typically has 10-points with a highest concentration at 10 μM, and half-log diluted to as low as 0.316 nM, plus a DMSO control. Assay plates were incubated at 37° C. with 5% CO2 for 120 hours. After that, 20 μL of the CellTiter-Glo (CTG) Luminescent Cell Viability Assay Reagent (Cat #G7573, Promega) was added to each well and incubated at room temperature for 30 minutes. Luminescence was then measured with Pherastar microplate reader (BMG Labtech). All percentage of cell growth inhibition curves were processed using Collaborative Drug Discovery Vault.
Cell viability reads in compound-treated wells were normalized to that of DMSO control and expressed as Percent of Control (PoC, y). A four Parameter Logistic Model was used to determine the compound's EC50 and DC50, using the following equation: […]

SMILES	DC50 (HiBiT tagged Wee1) [nM]	Dmax (HiBiT tagged Wee1) [%]	pIC50 (NCI-H1048 cells; Homo sapiens)	pIC50 (NCI-H1048 cells)
C=CCn1c(=O)c2cnc(Nc3ccc(N4CCN(CC5CCN(c6ncc(NC7CCC(=O)NC7=O)cc6F)CC5)[C@@H](C)C4)cc3)nc2n1-c1ccc2c(n1)[C@@](O)(CC)CC2 (stereo partly shown) [Compound 192]	< 100	> 75	≥ 7.60	
C=CCn1c(=O)c2cnc(Nc3ccc(C4CCN(CC5CCN(c6ccc7c(C8CCC(=O)NC8=O)nn(C)c7c6)CC5)CC4)cc3)nc2n1-c1cccc(C(C)(C)O)n1 (stereo not shown) [Compound 111]	< 100	50 to 75	≥ 7.60	
C=CCn1c(=O)c2cnc(Nc3ccc(N4CCC(N5CCC(c6ccc(NC7CCC(=O)NC7=O)cc6F)CC5)CC4)cc3)nc2n1-c1cccc(C(C)(C)O)n1 (stereo not shown) [Compound 82]	< 100	> 75	≥ 7.60	
C=CCn1c(=O)c2cnc(Nc3ccc(N4CCN(CC5CCN(c6ccc(NC7CCC(=O)NC7=O)cc6F)CC5)[C@H](C)C4)cc3)nc2n1-c1ccc2c(n1)[C@@](O)(CC)CC2 (stereo partly shown) [Compound 163]	< 100	> 75	≥ 7.60	
C=CCn1c(=O)c2cnc(Nc3ccc(N4CCN(CC5CCN(c6ccc(NC7CCC(=O)NC7=O)cc6F)CC5)CC4)cc3)nc2n1-c1ccc(=O)n(C(C)C)n1 (stereo not shown) [Compound 158]	< 100	> 75	≥ 7.60	
CC(C)n1c(=O)c2cnc(Nc3ccc(N4CCN(CC5CCN(c6ccc(NC7CCC(=O)NC7=O)cc6F)CC5)CC4)cc3)nc2n1-c1cccc(C(C)(C)F)n1 (stereo not shown) [Compound 199]	< 100	> 75	7.00 to 7.60	
C=CCn1c(=O)c2cnc(Nc3ccc(N4CCN(CC5CCN(c6ccc(NC7CCC(=O)NC7=O)cc6F)CC5)[C@@H](C)C4)cc3)nc2n1-c1ccc2c(n1)[C@@](O)(CC)CC2 (stereo partly shown) [Compound 162]	< 100	> 75	≥ 7.60	
C=CCn1c(=O)c2cnc(Nc3ccc(N4CCC(CN5CCC(c6cccc7c6n(C)c(=O)n7C6CCC(=O)NC6=O)CC5)CC4)cc3)nc2n1-c1ccc2c(n1)[C@@](O)(CC)CC2 (stereo partly shown) [Compound 54]	< 100	50 to 75	7.00 to 7.60	
C=CCn1c(=O)c2cnc(Nc3ccc(N4CCC(CN5CCC(c6ccc7c(N8CCC(=O)NC8=O)nn(C)c7c6)CC5)CC4)cc3)nc2n1-c1cccc(C(C)(C)O)n1 [Compound 95]	< 100	> 75	≥ 7.60	
C=CCn1c(=O)c2cnc(Nc3ccc(N4CCC(N5CC6(CN(c7ccc(NC8CCC(=O)NC8=O)cc7F)C6)C5)CC4)cc3)nc2n1-c1ccc2c(n1)[C@@](O)(CC)CC2 (stereo partly shown) [Compound 156]	< 100		≥ 7.60	
C=CCn1c(=O)c2cnc(Nc3ccc(N4CCC(CN5CCN(c6ccc(NC7CCC(=O)NC7=O)cc6F)CC5)CC4)cc3)nc2n1-c1cccc(C(C)(C)O)n1 (single isomer, unassigned) [Compound 100-B]	< 100			≥ 7.60
C=CCn1c(=O)c2cnc(Nc3ccc4c(c3)CN(CC3CCN(c5ccc6c(c5)C(=O)N(C5CCC(=O)NC5=O)C6=O)CC3)CC4)nc2n1-c1cccc(C(C)(C)O)n1 (stereo not shown) [Compound 7]	> 1000	< 50	< 7.00	
C=CCn1c(=O)c2cnc(Nc3ccc(N4CCC(CN5CCN(c6cccc7c(C8CCC(=O)NC8=O)nn(C)c67)CC5)CC4)cc3)nc2n1-c1cccc(C(C)(C)O)n1 (stereo not shown) [Compound 144]	< 100	> 75	≥ 7.60	
C=CCn1c(=O)c2cnc(Nc3ccc(N4CCC(CN5CCN(c6ccc7c(C8CCC(=O)NC8=O)nn(C)c7c6)CC5)CC4)cc3)nc2n1-c1cccc(C(C)(C)O)n1 (stereo not shown) [Compound 106]	< 100	> 75	≥ 7.60	
C=CCn1c(=O)c2cnc(Nc3ccc(C4CCN(C[C@@H]5CCN(c6ccc7c(c6)C(=O)N(C6CCC(=O)NC6=O)C7=O)C5)CC4)cc3)nc2n1-c1cccc(C(C)(C)O)n1 (stereo partly shown) [Compound 37]	< 100	50 to 75	7.00 to 7.60	
C=CCn1c(=O)c2cnc(Nc3ccc(N4CCC(N5CCC(c6ccc(NC7CCC(=O)NC7=O)cc6)CC5)CC4)cc3)nc2n1-c1cccc(C(C)(C)O)n1 (stereo not shown) [Compound 70]	< 100	> 75	≥ 7.60	
C=CCn1c(=O)c2cnc(Nc3ccc(C4CCN(CC5CCN(c6ccc7c(N8CCC(=O)NC8=O)nn(C)c7c6)CC5)CC4)cc3)nc2n1-c1cccc(C(C)(C)O)n1 [Compound 104]	< 100	> 75	≥ 7.60	

SMILES	DC50 (HiBiT tagged Wee1) [nM]	Dmax (HiBiT tagged Wee1) [%]	pIC50 (NCI-H1048 cells; Homo sapiens)	pIC50 (NCI-H1048 cells)
C=CCn1c(=O)c2cnc(Nc3ccc(N4CCN(CC5CCN(c6ccc7c(N8CCC(=O)NC8=O)nn(C)c7c6)CC5)CC4)cc3)nc2n1-c1cccc(C(C)(C)O)n1 [Compound 105]	< 100	> 75	≥ 7.60	
C=CCn1c(=O)c2cnc(Nc3ccc(N4CCN(CC5CCN(c6ncc(NC7CCC(=O)NC7=O)cc6F)CC5)CC4)cc3)nc2n1-c1ccc2c(n1)[C@@](O)(CC)CC2 (stereo partly shown) [Compound 180]	< 100	> 75	≥ 7.60	
C=CCn1c(=O)c2cnc(Nc3ccc(C4CCN(CN5CCN(c6ccc7c(N8CCC(=O)NC8=O)nn(C)c7c6)CC5)CC4)cc3)nc2n1-c1cccc(C(C)(C)O)n1 [Compound 89]	< 100	> 75	≥ 7.60	
C=CCn1c(=O)c2cnc(Nc3ccc(N4CCC(CN5CCN(c6ccc(NC7CCC(=O)NC7=O)cc6F)CC5)CC4)cc3)nc2n1-c1cccc(C(C)(C)O)n1 (single isomer, unassigned) [Compound 100-A]	< 100	> 75	≥ 7.60	
C=CCn1c(=O)c2cnc(Nc3ccc(N4CCN(CC5CCN(c6ccc(NC7CCC(=O)NC7=O)cn6)CC5)CC4)cc3)nc2n1-c1cccc(C(C)(C)O)n1 (stereo not shown) [Compound 87]	< 100	> 75	≥ 7.60	
Cc1cc(Nc2ncc3c(n2)N(C)CN(c2c(Cl)cccc2Cl)C3=O)ccc1C1CCN(CC2CN(c3ccc4c(c3)C(=O)N(C3CCC(=O)NC3=O)C4=O)C2)CC1 (stereo not shown) [Compound 18]	> 1000	< 50	< 7.00	
C=CCn1c(=O)c2cnc(Nc3ccc(N4CCN(C5CC6(C5)CN(c5ncc(NC7CCC(=O)NC7=O)cc5F)C6)CC4)cc3)nc2n1-c1ccc2c(n1)[C@@](O)(CC)CC2 (stereo partly shown) [Compound 185]	< 100	> 75	≥ 7.60	
C=CCn1c(=O)c2cnc(Nc3ccc(N4CCN(CC5CCN(c6ccc7c(C8CCC(=O)NC8=O)nn(C)c7c6)CC5)CC4)cc3)nc2n1-c1cccc(C(C)(C)O)n1 (stereo not shown) [Compound 76]	< 100	50 to 75	≥ 7.60	
C=CCn1c(=O)c2cnc(Nc3ccc(N4CCC(CN5CCC(c6ccc7c(C8CCC(=O)NC8=O)nn(C)c7c6)CC5)CC4)cc3)nc2n1-c1cccc(C(C)(C)O)n1 (stereo not shown) [Compound 96]	< 100	50 to 75	≥ 7.60	
C=CCn1c(=O)c2cnc(Nc3ccc(N4CCC(CN5CCC(c6ccc7c(c6)n(C)c(=O)n7C6CCC(=O)NC6=O)CC5)CC4)cc3)nc2n1-c1cccc(C(C)(C)O)n1 (stereo not shown) [Compound 52]	< 100	50 to 75	≥ 7.60	
C=CCn1c(=O)c2cnc(Nc3ccc(N4CCN(CC5CCN(c6ccc(NC7CCC(=O)NC7=O)cc6F)CC5)CC4)nc3)nc2n1-c1ccc2c(n1)[C@@](O)(CC)CC2 (stereo partly shown) [Compound 187]	< 100	> 75	≥ 7.60	
C=CCn1c(=O)c2cnc(Nc3ccc(N4CCN(C5CC6(C5)CN(c5ccc(NC7CCC(=O)NC7=O)cc5F)C6)CC4)cc3)nc2n1-c1ccc2c(n1)[C@@](O)(CC)CC2 (stereo partly shown) [Compound 168]	< 100	> 75	≥ 7.60	
C=CCn1c(=O)c2cnc(Nc3ccc(N4CCC(CN5CCN(c6ccc(NC7CCC(=O)NC7=O)cc6F)CC5)CC4)cc3)nc2n1-c1ccc2c(n1)[C@@](C)(O)CC2 (single isomer, unassigned) [Compound 121]	< 100	> 75	≥ 7.60	
C=CCn1c(=O)c2cnc(Nc3ccc(N4CCN(C5CCN(c6ccc(NC7CCC(=O)NC7=O)cc6F)CC5)CC4)cc3)nc2n1-c1cccc(C(C)(C)O)n1 (stereo not shown) [Compound 93]	< 100	> 75	≥ 7.60	
C=CCn1c(=O)c2cnc(Nc3ccc(N4CCN(CC5CCN(c6cc7c(cc6F)c(N6CCC(=O)NC6=O)nn7C)CC5)CC4)nc3)nc2n1-c1ccc2c(n1)[C@](C)(O)CC2 [Compound 197]	< 100	> 75	≥ 7.60	
C=CCn1c(=O)c2cnc(Nc3ccc(N4CC5(CCN(C6CN(c7ccc(NC8CCC(=O)NC8=O)cc7F)C6)CC5)C4)cc3)nc2n1-c1ccc2c(n1)[C@@](O)(CC)CC2 (stereo partly shown) [Compound 179]	< 100	> 75	≥ 7.60	
C=CCn1c(=O)c2cnc(Nc3ccc(N4CCN(CC5CCN(c6ccc(NC7CCC(=O)NC7=O)cc6Cl)CC5)CC4)cc3)nc2n1-c1ccc2c(n1)[C@@](O)(CC)CC2 (stereo partly shown) [Compound 176]	< 100	> 75	≥ 7.60	
